This is an account of results in patent US10807951B2, “mTORC1 modulators” (THE REGENTS OF THE UNIVERSITY OF CALIFORNIA, priority 2017, dated 2020).

Each structure is given as a SMILES string. Where only a bound is given, the exact number is not on record here.

Assay [1] relates to mTOR localization to LAMP2-positive lysosomes. The assay is described as follows: mTORC1 recruitment assay, immunofluorescence in HeLa cells. In kind it is cell-based. The settings on record: 50 μM, 1 h, amino acid stimulation. How it is done:
(§1) Next, we sought to determine whether YP 1-44 had expected cellular effects in disrupting the TORC1 complex, recruitment of TORC1 to the lysosome, and TORC1 signaling. We treated Hela cells with YP 1-44 for 1 h with and without amino acid stimulation. […] This finding is consistent with the role of Lamtor as an obligate scaffold not only for mTORC1 but also for the Rag GTPases at the lysosome. […] Thus, our results establish that YP 1-44 abolishes mTORC1 signaling both in vitro and in live cells by preventing mTORC1 localization to the lysosome, and that this action occurs via disruption of the Lamtor-Rag scaffold.
HeLa cells were plated on fibronectin-coated glass coverslips in 6-well plates (35 mm diameter/well), at 300,000-500,000 cells/well. 12-16 hours later, cells were subjected to amino acid depletion for 1 h in the presence of 50 uM compounds or an equivalent volume of DMSO, restimulated with a complete amino acid mix for 10 minutes, and fixed in 4% paraformaldehyde (in PBS) for 15 min at RT. The coverslips were rinsed twice with PBS and cells were permeabilized with 0.1% (w/v) Saponin in PBS for 10 min. […]

Another assay concerns RagC and RagA. The assay is described as follows: Rag GTPase lysosomal localization, immunofluorescence in HeLa cells. The format is cell-based. The conditions noted are these: 50 μM, 1 h. Here is the method: as §1
HeLa cells were plated on fibronectin-coated glass coverslips in 6-well plates (35 mm diameter/well), at 300,000-500,000 cells/well. 12-16 hours later, cells were subjected to amino acid depletion for 1 h in the presence of 50 uM compounds or an equivalent volume of DMSO, restimulated with a complete amino acid mix for 10 minutes, and fixed in 4% paraformaldehyde (in PBS) for 15 min at RT. The coverslips were rinsed twice with PBS and cells were permeabilized with 0.1% (w/v) Saponin in PBS for 10 min. After rinsing twice with PBS, the slides were incubated with primary antibody in 5% normal donkey serum for 1 hr at room temperature, rinsed four times with PBS, and incubated with fluorophore-conjugated secondary antibodies produced in goat or donkey (Life Technologies, diluted 1:1000 in 5% normal donkey serum) for 45 min at room temperature in the dark, washed four times with PBS. Coverslips were mounted on glass slides using Vectashield (Vector Laboratories) and imaged on a spinning disk confocal system (Andor Revolution on a Nikon Eclipse Ti microscope).

The subject of another assay is mTORC2. The assay is described as follows: p-AKT signaling in Hela cells by immunoblotting. The format is cell-based. The settings on record: up to 50 μM. (In general: In western blotting, separated proteins are transferred to a membrane and probed.)
The subject of a further assay is autophagy. As to the kind of experiment: Immunoblotting for autophagic markers LC3b and p62 in HEK-293A cells. The format is cell-based. Here is the method:
FIGS. 6A-6D. CC 1-44 inhibits mTORC1 signaling and activates autophagy. (FIG. 6A) Visual IP experiment monitoring binding of GFP-RagB to RFP-tagged, bead-bound Lamtor complex. […] (FIG. 6B) Immunofluorescence for endogenous RagA and LAMP2 in HEK-293A cells treated with DMSO, YP 1-44 or CC 1-44 for 2 h. […] (FIG. 6C) Immunofluorescence for endogenous mTOR and LAMP2 in HEK-293A cells treated with DMSO or CC 1-44 for 2 h. […] (FIG. 6D) Immunoblotting for autophagic markers LC3b and p62 from HEK-293A cells treated with DMSO (lane 1) or CC 1-44 (lane 3) for 2 h.
In cells treated with CC 1-44, autophagy becomes activated within 1 h, as judged by accumulation of cleaved LC3b and increased degradation of p62 (FIG. 6D).

Another assay deals with mTORC1. As to the kind of experiment: mTORC1 signaling in tissues of injected mice. The conditions noted are these: injection 100 mg/kg, heart, skeletal muscle, kidney.

Take `C=CC(=O)n1ccc2ccccc21` [YP 1-44]: the “amino acid-induced mTOR localization to LAMP2-positive lysosomes” value in assay [1] is given as “disrupts amino acid-induced mTOR localization”; in assay [1] (listed as YP1-44) it was “mTORC1 recruitment fails”. For the same compound, the “RagA localization to LAMP2-positive lysosomes” value was “no longer localized to the lysosome” with RagC and RagA; “causes dispersion of RagA from LAMP2-positive lysosomes” in the assay on RagC and RagA (listed as YP1-44). For the same compound, the “RagC localization to LAMP2-positive lysosomes” value in the assay on RagC and RagA was “no longer localized to the lysosome”; with RagC and RagA (listed as YP1-44), “causes dispersion of RagC from LAMP2-positive lysosomes”.
For `C=CC(=O)N1CCc2c(OCc3cc(C(F)(F)F)cc(C(F)(F)F)c3)cccc21` [CC 1-44], the “effect on canonical mTORC2 substrate pAKT” value in the assay on mTORC2 was “did not affect”. Also, the “autophagy (LC3b band increase, p62 band disappearance)” value in the assay on autophagy (HEK-293A cells, 2 h) is “activation of autophagy”. Further, in the assay on autophagy (HEK-293A cells, 2 h, with Bafilomycin A), the total autophagic flux result is listed as “increased”. Further, the “time to autophagy activation (accumulation of cleaved LC3b, increased degradation of p62)” value in the assay on autophagy (treated cells) was at most 1 h. Besides, in the assay with mTORC1, the “mTORC1 signaling as assessed by phospho-S6 and 4EBP1” value is “dramatic inhibition of mTORC1 signaling”.
